Each substance was assayed on senescent human IMR-90 fibroblast cells (assay: not given). Details: not given.
Type: cell-based
Description: Human IMR-90, BJ, WI-38 fibroblasts and REC epithelial cells were obtained from ATCC and grown at 5% oxygen. IMR-90 and REC cells were maintained in DMEM medium comprising 100 units per ml of penicillin, […] of streptomycin and 10% fetal bovine serum. BJ and WI-38 cells were maintained in EMEM medium comprising 100 units per ml of penicillin, […] of streptomycin, 10% fetal bovine serum, 1% Pyruvate, 1% L-Glutamine, mLFs were isolated according to standard procedures [Seluanov, A., et al. J Vis Exp (2010) (44):2033] and grown at 5% oxygen. Cells were maintained in EMEM medium comprising 100 units per ml of penicillin, […] of streptomycin and 15% fetal bovine serum.
DNA damage induced senescence (DIS) was induced by etoposide treatment (E1383, Sigma) at a concentration of […] for IMR-90, BJ, and WI-38, 16 μM for mLF and 12.5 μM for REC for a duration of 48 hours. Cells acquired the senescence phenotype 7 days post treatment (determined by SA-beta-gal staining).
Oncogene Induced Senescence (OIS) was induced by means of retroviral infection with H-RasG12 (pLNCX2) at 5% oxygen. Retroviruses were packaged, and infections were performed as described below.
Replicative Induced Senescence (RIS) was induced by long-term passaging of the cells in tissue culture. Cells acquired the senescence phenotype after 40 population doublings.
Primary target cells (IMR-90, BJ, […]) were plated in 24-well plates at 100,000 cells per well. Cells were transfected with different concentrations of DNAzymes (as depicted in Table 2, below) using Lipofectamine™ 2000 (Invitrogen) according to manufacturer instructions. The percentage of survival was determined based on quantification of remaining adherent cells using PrestoBlue® reagent (A13262, Life Technologies Ltd.) relative to Lipofectamine™ only control and compared to Scramble DNAzyme (Dz_Scramble) [Scramble Arm (Scr A) sequence: ATCTTCCTFggctagctacaacgaCGCCTCTCC, SEQ ID NO: 5, or Scramble catalytic core (Scr B) sequence: AGGAGAACAacagtaactggcgacGGGATGAGG, SEQ ID NO: 86] treated cells, 3-6 days following transfection.

Question: Which Validated cytotoxicity does the source give for “1872 (DNA TAACCCCATCCGAGCCGGACGACAAGGGGGC; chemistry not given here) [compound 1872]” here?
Answer: +

Question: “1873 (DNA ATAACCCCAGGCTAGCTACAACGATCAAGGGGG; chemistry not given here) [compound 1873]” was tested. Which Validated cytotoxicity did it give?
Answer: +

Question: For “1938 (DNA TTTGAGGGGGGCTAGCTACAACGACAGTGTCTC; chemistry not given here) [compound 1938]”, which Validated cytotoxicity is on record?
Answer: +

Question: “1947 (DNA GCTGGACGAGGCTAGCTACAACGATTGAGGGGC; chemistry not given here) [compound 1947]” was tested. Which Validated cytotoxicity did it give?
Answer: +

Question: “1967 (DNA TGGGGTGGAGGCTAGCTACAACGAGAGGAAGGT; chemistry not given here) [compound 1967]” was tested. Which Validated cytotoxicity did it give?
Answer: +

Question: “1976 (DNA GGGGAGGGAGGCTAGCTACAACGAGGGGTGGAT; chemistry not given here) [compound 1976]” was tested. Which Validated cytotoxicity did it give?
Answer: +

Question: For “1986 (DNA GCAATGAATCCGAGCCGGACGAGGGGAGGGA; chemistry not given here) [compound 1986]”, which Validated cytotoxicity is on record?
Answer: +

Question: How did the Validated cytotoxicity turn out when “1991 (DNA AAAGTGCAAGGCTAGCTACAACGAGAACTGGGG; chemistry not given here) [compound 1991]” was run?
Answer: +

Question: “2200 (DNA AGGCCAGTAGGCTAGCTACAACGAGTTACAGGA; chemistry not given here) [compound 2200]” was tested. Which Validated cytotoxicity did it give?
Answer: +

Question: For “2215 (DNA GAGAGAAAAGGCTAGCTACAACGAAGTCCAGGC; chemistry not given here) [compound 2215]”, which Validated cytotoxicity is on record?
Answer: +

Question: With “2235 (DNA ACCAGGACAGGCTAGCTACAACGAATGGGGAGC; chemistry not given here) [compound 2235]” as the substance, how does the Validated cytotoxicity read?
Answer: +

Question: “2266 (DNA AGAGGTTTAGGCTAGCTACAACGAAGTCTAGGT; chemistry not given here) [compound 2266]” was tested. Which Validated cytotoxicity did it give?
Answer: +

What follows are substances tested on human p21 mRNA (assay: In vitro cleavage assay of human p21 mRNA). Details: in vitro cleavage of p21 mRNA (SEQ ID NO: 1); RNA substrate 500 nM, 37° C. 60 min, agarose gel.
Type: biochemical
Excerpt: Total RNA was isolates from senescent IMR-90 cells using Nucleospin® RNA kit (Macherey-Nagel™). cDNA was synthesized with gene-specific reverse primers using M-MLV Reverse Transcriptase (Promega), according to the manufacturer's protocol. To generate template for in vitro transcription (IVT) reaction, the cDNA was PCR amplified using KAPA Taq EXtra HotStart® ReadyMix™ PCR Kit (R&D). PCR product was run on 1.5% agarose TAE gel, the correct band size was cut and DNA was cleaned using Wizard® SV Gel and PCR Clean-Up System kit (Promega). IVT was performed using HiScribe™ T7 High Yield RNA Synthesis Kit (NEB). Samples were then treated with DNase I (New England Biolabs) and incubated for 15 minutes at 37° C. IVT product was run on 1.5% agarose TBE gel, the correct band size was cut and RNA was cleaned using QIAquick® Gel Extraction Kit (Qiagen). See primer sequences in Table 1, below.
RNA substrate was diluted with Molecular Biology Grade Water (Biological Industries) and used in in vitro cleavage assay. A 20 μl reaction system comprising RNA substrate (final concentration 500 nM), 2 μl 10× reaction buffer (50 mM Tris-HCl pH 7.4, 100 mM NaCl, 10 mM MgCl2) and 1 μl DNAzyme (10 μM) (as depicted in Table 2, below) was mixed. Reactions were incubated at 37° C. for 60 min. 2×RNA L.D. (Thermo Fisher) was added to each sample. Samples were heated at 70° C. for 30 sec, centrifuged and loaded onto 1.5% agarose TBE gels. Quantification was performed using Image Lab software (Bio Rad).

Question: “DNAzyme 354: SEQ ID NO: 23: CGGTTCTGAggctagctacaacgaATGGCGCCT (DNA CGGTTCTGAGGCTAGCTACAACGAATGGCGCCT; DNA, backbone and methylation of C not given here)” was tested. Which Validated cleavage did it give?
Answer: validated for mediating cleavage of p21 mRNA

Question: Which Validated cleavage does the source give for “DNAzyme 495: SEQ ID NO: 29: GAAGTTCCAggctagctacaacgaCGCTCACGG (DNA GAAGTTCCAGGCTAGCTACAACGACGCTCACGG; DNA, backbone and methylation of C not given here)” here?
Answer: validated for mediating cleavage of p21 mRNA

Question: “DNAzyme 541: SEQ ID NO: 30: GCUCCCAGGggctagctacaacgaGAAGUCACC (DNA GCUCCCAGGGGCTAGCTACAACGAGAAGUCACC; DNA, backbone, methylation of C and T or U not given here)” was tested. Which Validated cleavage did it give?
Answer: validated for mediating cleavage of p21 mRNA

Question: “DNAzyme 846: SEQ ID NO: 33: GTGGGCGGAggctagctacaacgaTAGGGCTTC (DNA GTGGGCGGAGGCTAGCTACAACGATAGGGCTTC; DNA, backbone and methylation of C not given here)” was tested. Which Validated cleavage did it give?
Answer: validated for mediating cleavage of p21 mRNA

Question: With “DNAzyme 857: SEQ ID NO: 34: GCAGGCTTtccgagccggacgaTGTGGGCGG (GCAGGCTTTCCGAGCCGGACGATGTGGGCGG; DNA, backbone and methylation of C not given here)” as the substance, how does the Validated cleavage read?
Answer: validated for mediating cleavage of p21 mRNA

Question: “DNAzyme 974: SEQ ID NO: 35: GGGTATGTAggctagctacaacgaATGAGGAGG (GGGTATGTAGGCTAGCTACAACGAATGAGGAGG; DNA, backbone and methylation of C not given here)” was tested. Which Validated cleavage did it give?
Answer: validated for mediating cleavage of p21 mRNA

Question: How did the Validated cleavage turn out when “DNAzyme 1003: SEQ ID NO: 37: GCCAGAGGtccgagccggacgaGGGGGGCAG (DNA GCCAGAGGTCCGAGCCGGACGAGGGGGGCAG; DNA, backbone and methylation of C not given here)” was run?
Answer: validated for mediating cleavage of p21 mRNA

Question: “DNAzyme 1013: SEQ ID NO: 38: TAATTCTAAggctagctacaacgaGCCAGAGGC (DNA TAATTCTAAGGCTAGCTACAACGAGCCAGAGGC; DNA, backbone and methylation of C not given here)” was tested. Which Validated cleavage did it give?
Answer: validated for mediating cleavage of p21 mRNA

Question: With “DNAzyme 1116: SEQ ID NO: 41: AAAGGAGAAggctagctacaacgaACGGGAUGA (DNA AAAGGAGAAGGCTAGCTACAACGAACGGGAUGA; DNA, backbone, methylation of C and T or U not given here)” as the substance, how does the Validated cleavage read?
Answer: validated for mediating cleavage of p21 mRNA

Question: For “DNAzyme 1252: SEQ ID NO: 42: GGGGGTGAAggctagctacaacgaTTCATAACC (DNA GGGGGTGAAGGCTAGCTACAACGATTCATAACC; DNA, backbone and methylation of C not given here)”, which Validated cleavage is on record?
Answer: validated for mediating cleavage of p21 mRNA

Question: How did the Validated cleavage turn out when “DNAzyme 1455: SEQ ID NO: 45: AGGGGGGTAggctagctacaacgaCAAGAGCCA (DNA AGGGGGGTAGGCTAGCTACAACGACAAGAGCCA; DNA, backbone and methylation of C not given here)” was run?
Answer: validated for mediating cleavage of p21 mRNA

Question: Which Validated cleavage does the source give for “DNAzyme 1467: SEQ ID NO: 46: TTCACAAGAggctagctacaacgaAGAGGGGGG (DNA TTCACAAGAGGCTAGCTACAACGAAGAGGGGGG; DNA, backbone and methylation of C not given here)” here?
Answer: validated for mediating cleavage of p21 mRNA

Question: Which Validated cleavage does the source give for “DNAzyme 1504: SEQ ID NO: 47: GGGGTGGTtccgagccggacgaGCTCCAGGA (DNA GGGGTGGTTCCGAGCCGGACGAGCTCCAGGA; DNA, backbone and methylation of C not given here)” here?
Answer: validated for mediating cleavage of p21 mRNA

Question: Which Validated cleavage does the source give for “DNAzyme 1524: SEQ ID NO: 48: GAGGGGCCAggctagctacaacgaGAGGGCAGG (DNA GAGGGGCCAGGCTAGCTACAACGAGAGGGCAGG; DNA, backbone and methylation of C not given here)” here?
Answer: validated for mediating cleavage of p21 mRNA

Question: “DNAzyme 1641: SEQ ID NO: 53: AGAGGGGAAggctagctacaacgaTGCAGAGCC (DNA AGAGGGGAAGGCTAGCTACAACGATGCAGAGCC; DNA, backbone and methylation of C not given here)” was tested. Which Validated cleavage did it give?
Answer: validated for mediating cleavage of p21 mRNA

Question: How did the Validated cleavage turn out when “DNAzyme 1683: SEQ ID NO: 55: AGAGGGTAtccgagccggacgaGAAGGGAAA (DNA AGAGGGTATCCGAGCCGGACGAGAAGGGAAA; DNA, backbone and methylation of C not given here)” was run?
Answer: validated for mediating cleavage of p21 mRNA

Question: “DNAzyme 1684: SEQ ID NO: 56: GAGAGGGTAggctagctacaacgaTGAAGGGAA (DNA GAGAGGGTAGGCTAGCTACAACGATGAAGGGAA; DNA, backbone and methylation of C not given here)” was tested. Which Validated cleavage did it give?
Answer: validated for mediating cleavage of p21 mRNA

Question: How did the Validated cleavage turn out when “DNAzyme 1719: SEQ ID NO: 57: GGGGTGGGAggctagctacaacgaAGGCACCTC (DNA GGGGTGGGAGGCTAGCTACAACGAAGGCACCTC; DNA, backbone and methylation of C not given here)” was run?
Answer: validated for mediating cleavage of p21 mRNA

From patent US11879140B2, “P21 mRNA targeting DNAzymes” (1E Therapeutics Ltd., priority 2020, dated 2024)
